PubChem BioAssay (NCI)
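Cultured in 96-well plates, cells were exposed to test compound for 48 hours across five concentrations. TGI: concentration producing complete growth inhibition.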

Legend:
Assay in all cases: DTP human tumour cell line panel, 48 h
[1] = system: NCI-H522 lung
[2] = system: NCI-H226 lung
[3] = system: A549 NSCLC
[4] = system: SF-268 CNS
[5] = system: NCI-H460 lung
[6] = system: SF-539 CNS
[7] = system: SW-620 colon
[8] = system: LOX IMVI melanoma
[9] = system: SK-MEL-28 melanoma
[10] = system: DU-145 prostate
[11] = system: IGROV1 ovarian
[12] = system: MCF7 breast
[13] = system: 786-0 renal
[14] = system: UO-31 renal
[15] = system: SN12C renal
[16] = system: SF-295 CNS

Structure (SMILES) | TGI [1] [µM] | TGI [2] [µM] | TGI [3] [µM] | TGI [4] [µM] | TGI [5] [µM] | TGI [6] [µM] | TGI [7] [µM] | TGI [8] [µM] | TGI [9] [µM] | TGI [10] [µM] | TGI [11] [µM] | TGI [12] [µM] | TGI [13] [µM] | TGI [14] [µM] | TGI [15] [µM] | TGI [16] [µM]
CC(C)(C)OC(=O)N(O)[C@@H]1C=C[C@H](n2cnc3c(N)ncnc32)C1 | > 100 | 96.9 | > 100 | > 100 | > 100 | > 100 | > 100 | > 100 | > 100 | > 100 | > 100 | > 100 | > 100 | > 100 | > 100 | > 100
C=CC(Cl)(CBr)CCC(Br)=C(C)C (configuration not stated) | 36.8 | > 100 | > 100 | 43.3 | 38 | 44 | 29.2 | 37.8 | 40.7 | > 100 | 29.9 | 31.5 | 67.6 | 37.4 | 33 | > 100
CC(C)/C(Cl)=N\OC(=O)Nc1cccc(F)c1 | 2.98 | 33.5 | 34.9 | 58 | > 66.8 | 35.4 | 5.5 | 5.31 | 31.9 | 32.5 | 36.2 | 32.8 | 29.6 | 32.6 | 32.2 | > 53.9
O=C(O)CN1CCNCCN(CP(=O)(O)O)CC1 | > 26.8 | > 100 | > 100 | > 100 | > 100 | > 100 | > 100 | > 100 | > 100 | > 100 | > 100 | > 100 | > 29.2 | > 100 | > 100 | > 100
O=C1/C(=C/c2cccnc2)C(n2cccc2)c2c(Br)sc(Br)c21 (configuration not stated) | 12.6 | > 100 | 32.5 | 4.3 | 18.9 | 9.5 | > 21.9 | 3.89 | 7.31 | 3.53 | 3.38 | 4.02 | 6.17 | 3.43 | 14.2 | 32
CCOc1ccc(N=NC2C(=O)N(C(=O)CC(=O)Nc3ccccc3OC)N=C2C)cc1 (configuration not stated) | 55.3 | > 100 | > 100 | 97 | > 42.8 | > 57.9 | 52.9 | > 100 | > 100 | > 100 | > 100 | > 100 | > 57.3 | > 100 | > 100 | > 53.8
COc1cc(/C=C2\C[C@H]3[C@@H]4CC=C5C[C@@H](O)CC[C@]5(C)[C@H]4CC[C@]3(C)[C@H]2O)cc(OC)c1OC | > 100 | > 100 | > 100 | > 100 | > 100 | > 100 | > 100 | 27.3 | > 100 | > 100 | > 100 | > 100 | 27.1 | 36.8 | > 100 | 22.4
CCOC(=O)c1ccc(Nc2nc3cc(C(F)(F)F)ccc3nc2-c2ccccc2)cc1 | > 100 | > 100 | > 100 | > 100 | > 100 | > 100 | > 100 | > 100 | > 100 | > 100 | > 100 | > 100 | 44.8 | > 100 | > 100 | 60.6
Cc1ccc2c(c1)C(=O)/C(=C\c1ccccc1)CCS2(=O)=O | 14.6 | > 49.9 | > 87.8 | > 68.7 | 24.9 | 29.9 | 73.5 | 44.3 | > 66.4 | 21.8 | 28.7 | 18.9 | 25.2 | 26.7 | 53.3 | 29.6
Cc1ccc(S(=O)(=O)N2CCN(S(=O)(=O)c3ccc(C)cc3)Cc3ccccc3C2)cc1 | 95 | > 100 | > 100 | > 100 | > 100 | > 100 | > 100 | > 100 | > 100 | > 100 | > 100 | > 100 | > 100 | > 100 | > 100 | > 100
CC1Cc2c(Br)nc(N)nc2NC1=O (configuration not stated) | > 100 | > 100 | > 100 | > 100 | > 100 | > 100 | > 100 | > 100 | > 100 | > 100 | > 100 | > 100 | > 100 | > 100 | > 100 | > 100
CC(C)CNC(=O)CCc1cccc2c1oc1c(CCN)cccc12 | 29.6 | 33.6 | 35.6 | 31.2 | 36.9 | 30.3 | 27.5 | 27.9 | 23.8 | 33.8 | 23.7 | 46.1 | 24.9 | 25.2 | 32.2 | 31.6
COc1cc2cc(C(=O)N3CC(CCl)c4c3cc([N+](=O)[O-])c3ccccc43)[nH]c2c(OC)c1OC (configuration not stated) | > 100 | > 100 | > 100 | > 100 | > 63.8 | > 100 | > 100 | > 100 | > 100 | > 100 | > 100 | > 100 | > 100 | > 100 | > 100 | 97.7
OC(c1nc2ccccc2s1)(C(F)(F)F)C(F)(F)F | > 100 | > 100 | > 100 | > 100 | > 100 | > 100 | > 100 | > 100 | > 100 | > 100 | > 100 | > 100 | > 100 | > 100 | > 100 | > 100
COc1ccc(N(C)S(=O)(=O)c2ccccc2)cc1 | > 100 | > 100 | > 100 | > 100 | > 100 | > 100 | > 100 | > 100 | > 100 | > 100 | > 100 | > 100 | > 100 | > 100 | > 100 | > 100
COc1ccc(NC(=O)CC(=O)N2N=C(N3CCCCC3)CC2c2ccccc2)cc1 (configuration not stated) | > 100 | > 100 | > 100 | > 100 | > 100 | > 100 | > 100 | > 100 | > 100 | > 100 | > 100 | > 100 | > 100 | > 100 | > 100 | > 100
O=C(/C=C(\O)c1ccc(Cl)cc1)C(=O)N=Nc1c(O)[nH]c2ccc(Br)cc12 | > 100 | > 100 | > 100 | > 100 | > 100 | > 100 | > 100 | > 100 | > 100 | > 100 | > 100 | > 100 | > 100 | > 100 | > 100 | > 100
